Source: article PMC11929900 (Communications Chemistry, 2025)

Molecular target: h-cGAS (Homo sapiens, UniProt Q8N884)
Assay: cGAS Kinase-Glo inhibition biochemical assay

Chain of h-cGAS (Q8N884 whole entry): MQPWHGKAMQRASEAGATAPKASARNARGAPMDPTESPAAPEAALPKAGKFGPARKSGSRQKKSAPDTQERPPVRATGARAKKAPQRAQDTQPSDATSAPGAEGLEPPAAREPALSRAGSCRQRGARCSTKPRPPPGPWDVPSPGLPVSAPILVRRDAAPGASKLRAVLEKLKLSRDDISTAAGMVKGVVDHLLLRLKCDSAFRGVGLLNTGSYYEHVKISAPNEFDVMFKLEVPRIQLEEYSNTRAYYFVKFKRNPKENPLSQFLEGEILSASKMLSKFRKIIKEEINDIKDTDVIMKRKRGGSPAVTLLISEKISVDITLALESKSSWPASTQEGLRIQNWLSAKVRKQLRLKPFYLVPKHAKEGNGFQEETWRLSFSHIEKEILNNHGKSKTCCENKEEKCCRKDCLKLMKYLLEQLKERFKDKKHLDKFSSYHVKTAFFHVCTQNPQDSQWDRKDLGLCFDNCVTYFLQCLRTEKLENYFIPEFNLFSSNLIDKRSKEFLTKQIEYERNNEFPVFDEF

IC50: > 10 µM
Structure (SMILES): COCC(=O)N1CCc2[nH]c3c(Cl)c(Cl)ccc3c2C1(C)C [Compound 3, 1-(6,7-dichloro-1,1-dimethyl-1,3,4,5-tetrahydro-2H-pyrido[4,3-b]indol-2-yl)-2-methoxyethan-1-one]
